This is an account of results in BindingDB's records for doi:10.1016/j.bmcl.2018.07.042 (Takeda Pharmaceutical, 2018).

Structures are written as SMILES. pIC50: −log10 of the molar value.

This assay is described as follows: Inhibition of human CCR6 expressed in CHO cells assessed as decrease in human CCL20-dependent cell migration incubated for 4 hrs by Diff-Quik staining based assay.

As for `Cc1ccc(S(=O)(=O)N2CCC(Nc3ccc(C#N)cn3)CC2)cc1`, the pIC50 (usually the IC50 on a negative log10 scale, so that one unit is a factor of ten) is 5.85.

Regarding `N#Cc1ccc(NC2CCN(S(=O)(=O)c3ccc(-c4ccccc4)cc3)CC2)nc1`, the negative logarithm of the IC50 (pIC50) is 6.62.
